Measured values from article PMC6362038, “Secondary structures and cell-penetrating abilities of arginine-rich peptide foldamers” (Scientific Reports, 2019).
Peptide text beside a SMILES is read from it. * marks the point of attachment. 5FAM = O=C1OC2(c3ccc(O)cc3Oc3cc(O)ccc32)c2ccc(C(=O)*)cc21

How the values were obtained:
HeLa cells [1] = experiment: Cellular uptake of CF-labeled peptides into HeLa cells (flow cytometry); assay type: cell-based; conditions: 1 µM peptide, 2, 6 and 24 h, DMEM 10% FBS, heparin wash, trypsinized, flow cytometry fluorescence, mean of n = 3
Method: Cellular uptake of peptides was assessed against HeLa (Fig. 5a) and CHO-K1 cells (Fig. 5b) at a concentration of 1 µM and various incubation times (2, 6, and 24 h). […] Not only stabilities against protease digestion but also other factors might contribute to prolongation of the cell-penetrating ability of peptides. […] The number of Arg residues in Arg-rich peptides is very important for their cell-penetrating ability, and six Arg are not enough. […] Substitution of Arg in Arg peptide with Ac5c, Ac5c^dOM, or (αMe)Leu positively affected its cell-penetrating ability compared with Aib. In comparison, among the peptides containing dAAs, (αMe)Leu peptide was the best for HeLa cell, Ac5c peptide was the best for CHO-K1 cell, and Ac5c^dOM peptide was the worst for both cell types (Fig. 5). Although the best peptides were different depending on cell type, the worst peptide was same for both cell types. […] Taken together, a stable helical structure by introducing dAAs into Arg-rich peptide enhanced their cell-penetrating abilities.
HeLa or CHO-K1 cells were seeded on 24-well culture plates (100,000 cells/well) and incubated in 400 µL of DMEM containing 10% FBS. The medium was then replaced with fresh medium, and a peptide solution was added to each well at a concentration of 1 µM. After each incubation time, the medium was removed and cells were washed with ice-cold PBS with heparin (20 units/mL) and trypsinized. After the addition of medium containing 10% FBS, fluorescence intensity was detected and acquired using an On-chip Flow (On-chip Biotechnologies Co., Ltd, Tokyo, Japan). The results are presented as a mean and standard deviation obtained from 3 samples.

[2] = Circular dichroism, R value of secondary structure; assay type: physicochemical; conditions: CD, peptide 24 µM
Method: The conformations of peptides were analyzed by circular dichroism (CD) in pH 7.3 4-(2-hydroxyethyl)-1-piperazineethanesulfonic acid (HEPES) buffer (Fig. 3a), 40% 2,2,2-trifluoroethanol (TFE)/pH 7.3 HEPES buffer (Fig. 3b), and 75% TFE/pH 7.3 HEPES buffer (Fig. 3c). Negative maxima at 205–209 nm (π → π*) and 222–225 nm (n → π*) were diagnostic of a right-handed (P) helical structure[31]–[33]. The ratio of R (θπ → π*/θn → π*) has been used as a parameter to distinguish an α-helical structure from a 3_10-helical structure (i.e., R ≈ 1: α-helix; R < 0.4: 3_10-helix) (Table S1)[34],[35]. Helical content (helicity) of peptides was estimated from the intensity of θn → π* values. A negative maximum at 195–200 nm (π → π*) and a weak positive maximum at 217 nm (n → π*) were diagnostic of a random coil structure. […] By adding TFE to HEPES buffer, (αMe)Leu peptide formed a complete right-handed (P) helical structure in a mixture of α- and 3_10-helices (R = 0.57 and 0.56 in Figs 3b and […], respectively). The dominant structures of Ac5c and Leu peptides changed by increased the rate of TFE to eventually be α-/3_10-helices (R = 0.52) and 3_10-helix (R = 0.30), respectively (Fig. 3c). […] Cbz-[L-Leu-L-Leu-(S,S)-Ac5c^dOM]3-OMe was reported to form a right-handed (P) helical structure in 50% TFE/H2O[37]. L-Leu might contribute to stabilization of the peptide helical secondary structure as well as (S,S)-Ac5c^dOM. Destabilization of the peptide helical secondary structure by L-Arg might be stronger than stabilization of it by (S,S)-Ac5c^dOM. Taken together with the results of CD spectra (Fig. 3), in which helicity of peptides was estimated from the intensity of θn → π* values, stability in the helicity of the peptides in the current study was as follows: (αMe)Leupeptide>Ac5cpeptide≈Leupeptide>Ac5c^dOMpeptide≈Argpeptide.
Figure 3 CD spectra of peptides in (a) HEPES buffer, (b) 40% TFE/HEPES buffer, and (c) 75% TFE/HEPES buffer. Peptide concentration: 24 µM.
Optical rotation [α]^rtD was measured using a Jasco DIP-370 polarimeter (JASCO, Tokyo, Japan) using a 0.5 dm cell. Infrared (IR) spectra were recorded using a Shimadzu IR Affinity-1 spectrometer (Shimadzu Corporation, Kyoto, Japan) for conventional measurement (KBr). CD spectra were recorded using a Jasco J-720W spectropolarimeter (JASCO) with a 1.0 mm path length cell. ^1H NMR (400 MHz) and ^13C NMR (100 MHz) spectra were determined using a JEOL AL 400 spectrometer (JEOL Ltd, Tokyo, Japan). Fast atom bombardment (FAB)-MS was measured using a JEOL JMS-700N (JEOL). MALDI-TOF-MS spectra were recorded using a Bruker Ultrax spectrometer (Bruker Daltonics, Fermont, CA). Piperidine was purchased from Tokyo Chemical Industry Co., Ltd. (Tokyo, Japan). Fmoc-L-Arg(Pbf)-OH, Fmoc-Gly-OH, Fmoc-L-Leu-OH, and CLEAR-Amide resin were purchased from the Peptide Institute., Inc. (Osaka, Japan). Fmoc-(S)-(αMe)Leu-OH was obtained from Nagase & Co., Ltd. (Kyoto, Japan). Fmoc-Ac5c-OH was purchased from Watanabe Chemical Industries, Ltd. (Hiroshima, Japan). HATU, HBTU, HOAt, and HOBt were from AAPPTec (Louisville, KY). COMU was from Novabiochem (Tokyo, Japan). CF and Dulbecco’s modified Eagle’s medium (DMEM) were obtained from Sigma-Aldrich Co. (St. Louis, MO). diisopropylethylamine (DIPEA) and heparin were purchased from Wako Pure Chemicals Co., Inc. (Osaka, Japan). Diethyl ether was from Kanto Chemical Co., Inc. (Tokyo, Japan). Trifluoroacetic acid (TFA) was obtained from Nacalai Tesque, Co., Inc. (Kyoto, Japan). Hoechst 33342 and a Cell counting kit-8 were purchased from Dojindo Laboratories (Kumamoto, Japan). LysoTracker Red was from Molecular Probes (Eugene, OR).
Table S1. R values (qπ → π*/qn → π*) of synthetic peptides.
R value (qπ → π*/qn → π* )
HEPES 40% TFE/HEPES 75% TFE/HEPES

[3] = Resistance to protease digestion with trypsin; assay type: in vitro ADME; conditions: 10 µM peptide in 2.5 × 10^−6 w/v% trypsin/PBS, 37 °C, RP-HPLC, α-CHCA internal standard, read-out: intact peptide after incubation with trypsin
From the text: (§1) Next, we examined the stability of peptides against protease digestion using trypsin (Fig. 4a) and pronase (Fig. 4b). One of the advantages of peptide foldamers containing dAAs is their high resistance to degradation by proteases[38]–[40]. Trypsin is a serine protease that cleaves amide bonds at the C terminus of cationic amino acids such as Arg and lysine. Pronase is a non-specific protease mixture produced in the culture supernatant of Streptomyces griseus. Ac5c, Ac5c^dOM, (αMe)Leu, and Leu peptides were incubated with trypsin or pronase for 1, 2, and 4 h, and then rate of intact peptide was evaluated by RP-HPLC using α-cyano-4-hydroxycinnamic acid (α-CHCA) as an internal standard. Leu peptide was promptly degraded by both trypsin and pronase, and reached 0% intact peptide after 4 h incubation in a similar manner to Arg peptide reported previously[24],[25]. On the other hand, approximately 80% of Ac5c, Ac5c^dOM, and (αMe)Leu peptides remained intact even after 4 h incubation. Introduction of dAAs into peptides markedly elevated resistance to protease digestion, whether or not peptides formed stable helical structures. In other words, peptides composed of only natural α-amino acids were easily degraded by proteases independently of their peptide secondary structures.
(§2) One-hundred microliters of peptide solution (10 µM) in 2.5 × 10^−6 w/v% trypsin or pronase/phosphate buffer saline (PBS) was incubated at 37 °C for 0, 1, 2, and 4 h. After each incubation time, 250 µL of 1% TFA/PBS solution was added to inactivate the proteases, and 50 µL of 1/2 diluted saturated α-CHCA solution was added as an internal standard, followed by HPLC analysis, which was performed using the above-mentioned conditions.

[4] = Resistance to protease digestion with pronase; assay type: in vitro ADME, Streptomyces griseus; conditions: 10 µM peptide in 2.5 × 10^−6 w/v% pronase/PBS, 37 °C, RP-HPLC, α-CHCA internal standard, read-out: intact peptide after incubation with pronase
From the text: as §1, §2

HeLa cells [5] = conditions: 24 h incubation; cited from earlier work
Method: Cellular uptake of peptides was assessed against HeLa (Fig. 5a) and CHO-K1 cells (Fig. 5b) at a concentration of 1 µM and various incubation times (2, 6, and 24 h). […] Furthermore, the cellular uptake of Ac5c^dOM peptide increased up t ...

Compound	cellular uptake, course over incubation time (HeLa cells [1])	R value (θπ → π*/θn → π*) ([2]; 40% TFE/pH 7.3 HEPES buffer)	R value (θπ → π*/θn → π*) ([2]; 75% TFE/pH 7.3 HEPES buffer)	R value (θπ → π*/θn → π*) ([2]; pH 7.3 HEPES buffer, R ≈ 1 α-helix, R < 0.4 3_10-helix)	remaining at 4 h, 10 µM [3] [%]	remaining at 4 h, 10 µM [4] [%]	cell-penetrating ability compared with Arg nonapeptide (HeLa cells [5])
CC(C)C[C@H](NC(=O)[C@H](CCCNC(=N)N)NC(=O)[C@H](CCCNC(=N)N)NC(=O)[C@H](CC(C)C)NC(=O)[C@H](CCCNC(=N)N)NC(=O)[C@H](CCCNC(=N)N)NC(=O)[C@H](CC(C)C)NC(=O)[C@H](CCCNC(=N)N)NC(=O)[C@H](CCCNC(=N)N)NC(=O)CNC(=O)c1ccc2c(c1)C(=O)OC21c2ccc(O)cc2Oc2cc(O)ccc21)C(N)=O [Leu peptide] (5FAM-GRRLRRLRRL-NH2)	small decrease	0.26	0.30	No significant maxima	0	0	–
(L-Arg-L-Arg-Aib)3 [(L-Arg-L-Arg-Aib)3 nonapeptide]	–	–	–	–	–	–	much lower cell-penetrating ability than Arg nonapeptide
